molecular target: human activated kallikrein enzyme (Homo sapiens (Human), UniProt P03952); experiment: Inhibition of human activated plasma kallikrein, fluorogenic peptide substrate assay, 500 pM enzyme format; type: biochemical; conditions: 500 pM activated kallikrein, 300 uM Pro-Phe-Arg-7-amido-4-methylcoumarin substrate, 30 min preincubation, 10 min reaction at RT; read-out: Primary Dose Response Assay: Average EC50
Protocol: Example compounds were evaluated for inhibition of the human activated kallikrein enzyme in two formats of an assay employing a fluorogenic peptide substrate. In one assay format, the concentrations of reagents were as follows: 20 mM Tris pH 7.5, 1 mM EDTA, 150 mM sodium chloride, 0.1% PEG-400, 0.1% Triton X-100, 500 pM activated kallikrein enzyme, 300 uM Pro-Phe-Arg-7-amido-4-methylcoumarin substrate. Prior to reaction initiation with substrate, enzyme and inhibitors were preincubated for 30 min at RT. After initiation with substrate, reactions were incubated for 10 min at RT and fluorescence emission at 460 nm from 380 nm excitation measured with a microplate reader. In another assay format, the concentrations of reagents were as follows: 20 mM Tris pH 7.5, 1 mM EDTA, 150 mM sodium chloride, 0.1% PEG-400, 0.1% Triton X-100, 5 pM activated kallikrein enzyme, 300 uM Pro-Phe-Arg-7-amido-4-methylcoumarin substrate. Prior to reaction initiation with substrate, enzyme and inhibitors were preincubated for 30 min at RT. After initiation with substrate, reactions were incubated for 18 h at RT and fluorescence emission at 460 nm from 380 nm excitation measured with a microplate reader.

Sequence of human activated kallikrein enzyme (P03952 391-638): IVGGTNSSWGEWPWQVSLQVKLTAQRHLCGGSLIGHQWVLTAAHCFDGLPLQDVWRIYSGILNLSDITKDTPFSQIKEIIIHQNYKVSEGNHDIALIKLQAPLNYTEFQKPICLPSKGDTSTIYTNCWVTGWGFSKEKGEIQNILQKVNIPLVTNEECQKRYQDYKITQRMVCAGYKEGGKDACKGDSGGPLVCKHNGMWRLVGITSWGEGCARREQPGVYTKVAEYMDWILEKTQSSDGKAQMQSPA
Sequence of human activated kallikrein enzyme (P03952 20-390 partner): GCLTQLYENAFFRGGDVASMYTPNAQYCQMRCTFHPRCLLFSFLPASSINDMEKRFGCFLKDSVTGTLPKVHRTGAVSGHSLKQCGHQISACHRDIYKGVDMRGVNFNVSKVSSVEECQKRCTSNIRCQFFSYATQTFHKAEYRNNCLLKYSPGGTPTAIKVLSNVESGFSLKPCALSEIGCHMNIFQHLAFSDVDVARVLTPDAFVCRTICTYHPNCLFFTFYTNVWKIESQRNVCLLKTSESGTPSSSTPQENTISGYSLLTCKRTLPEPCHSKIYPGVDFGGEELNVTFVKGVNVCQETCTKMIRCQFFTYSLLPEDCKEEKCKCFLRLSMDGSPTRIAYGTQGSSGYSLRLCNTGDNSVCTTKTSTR

| Compound | EC50 |
| --- | --- |
| COc1ccc2nc(CNC(=O)c3cnn(Cc4cn5ccc(C6CC6)cc5n4)c3)cn2c1 [I-12, 1-((7-cyclopropylimidazo[1,2-a]pyridin-2-yl)methyl)-N-((6-methoxyimidazo[1,2-a]pyridin-2-yl)methyl)-1H-pyrazole-4-carboxamide] | 10 to 100 nM |
| O=C(NCc1ncn2ccc(Cl)c(F)c12)c1cn(Cc2cc3ccc(C4CC4)cc3o2)nn1 [I-219, N-((7-chloro-8-fluoroimidazo[1,5-a]pyridin-1-yl)methyl)-1-((6-cyclopropylbenzofuran-2-yl)methyl)-1H-1,2,3-triazole-4-carboxamide] | 10 to 100 nM |
| CCOC(=O)CCn1c(Cn2cc(C(=O)NCc3ncn4ccc(Cl)c(F)c34)nn2)cc2cc(C3CC3)ccc21 [I-251a, Ethyl 3-(2-((4-(((7-chloro-8-fluoroimidazo[1,5-a]pyridin-1-yl)methyl)carbamoyl)-1H-1,2,3-triazol-1-yl)methyl)-5-cyclopropyl-1H-indol-1-yl)propanoate] | 1 to 10 nM |
| O=C(NCc1ncn2ccc(Cl)c(F)c12)c1cn(Cc2cn3ccccc3n2)nn1 [I-286, N-((7-chloro-8-fluoroimidazo[1,5-a]pyridin-1-yl)methyl)-1-(imidazo[1,2-a]pyridin-2-ylmethyl)-1H-1,2,3-triazole-4-carboxamide] | 10 to 100 nM |
| O=C(NCc1ncn2ccc(Cl)c(F)c12)c1cn(Cc2ccc3nccnc3c2)nn1 [I-292, N-((7-chloro-8-fluoroimidazo[1,5-a]pyridin-1-yl)methyl)-1-(quinoxalin-6-ylmethyl)-1H-1,2,3-triazole-4-carboxamide] | 10 to 100 nM |

Further lines, results first:

| EC50 | Compound |
| --- | --- |
| 1 to 10 nM | 1-(2-((4-(((7-chloroimidazo[1,5-a]pyridin-1-yl)methyl)carbamoyl)-1H-pyrazol-1-yl)methyl)imidazo[1,2-a]pyridin-8-yl)cyclopropane-1-carboxylic acid [I-116] |
| 1 to 10 nM | O=C(NCc1ncn2ccc(Cl)cc12)c1cnn(Cc2cn3nc(C4CC4)ccc3n2)c1 [I-11, N-((7-chloroimidazo[1,5-a]pyridin-1-yl)methyl)-1-((6-cyclopropylimidazo[1,2-b]pyridazin-2-yl)methyl)-1H-pyrazole-4-carboxamide] |
| < 1 nM | O=C(NCc1ncn2ccc(Cl)c(F)c12)c1cn(Cc2cn3cc(C4CC4)cc(CC(F)C(=O)O)c3n2)nn1 (centres unmarked) [I-224b, 3-(2-((4-(((7-chloro-8-fluoroimidazo[1,5-a]pyridin-1-yl)methyl)carbamoyl)-1H-1,2,3-triazol-1-yl)methyl)-6-cyclopropylimidazo[1,2-a]pyridin-8-yl)-2-fluoropropanoic acid] |
| < 1 nM | CC(C)(C(=O)O)C(O)c1cc(C2CC2)cn2cc(Cn3cc(C(=O)NCc4ncn5ccc(Cl)c(F)c45)nn3)nc12 (centres unmarked) [I-241b, 3-(2-((4-(((7-chloro-8-fluoroimidazo[1,5-a]pyridin-1-yl)methyl)carbamoyl)-1H-1,2,3-triazol-1-yl)methyl)-6-cyclopropylimidazo[1,2-a]pyridin-8-yl)-3-hydroxy-2,2-dimethylpropanoic acid] |
| < 1 nM | Ethyl 1-(2-((4-(((7-chloroimidazo[1,5-a]pyridin-1-yl)methyl)carbamoyl)-1H-pyrazol-1-yl)methyl)imidazo[1,2-a]pyridin-8-yl)cyclopropane-1-carboxylate [I-115] |
| < 1 nM | N-((7-chloro-8-fluoroimidazo[1,5-a]pyridin-1-yl)methyl)-1-((8-(2-cyano-2-methylpropyl)-6-cyclopropylimidazo[1,2-a]pyridin-2-yl)methyl)-1H-pyrazole-4-carboxamide [I-237] |
| < 1 nM | N-((7-chloroimidazo[1,5-a]pyridin-1-yl)methyl)-1-((6-cyclopropyl-8-(2-methoxyethoxy)imidazo[1,2-a]pyridin-2-yl)methyl)-1H-pyrazole-4-carboxamide [I-103] |
| < 1 nM | N-((7-chloroimidazo[1,5-a]pyridin-1-yl)methyl)-1-((8-(1-(hydroxymethyl)cyclopropyl)imidazo[1,2-a]pyridin-2-yl)methyl)-1H-pyrazole-4-carboxamide [I-117] |

same assay, conditions: comparative compounds; 500 pM activated kallikrein format; read-out: Primary Dose Response Assay: Average EC50

| EC50 | Compound |
| --- | --- |
| 100 to 2000 nM | Cc1ccn2cc(Cn3cc(C(=O)NCc4cnc5ccc(Cl)cn45)cn3)nc2c1 [reference compound] |

Source: patent US11352356B2, “Inhibitors of plasma kallikrein and uses thereof” (Takeda Pharmaceutical Company Limited, priority 2018, dated 2022)
